Test results: patent US9840509B2, “Heterocyclic compounds” (CADILA HEALTHCARE LIMITED, priority 2014, dated 2017)

Assays:
CYP 2C8 = target: T1, CYP 2C8 (Homo sapiens, UniProt P10632); assay: CYP inhibition in human liver microsomes, 2C8; type: in vitro ADME; details: pH 7.4, @ 10 μM concn
T1 construct: from tissue; host or cells: human liver microsomes
T1 sequence (P10632 1-490): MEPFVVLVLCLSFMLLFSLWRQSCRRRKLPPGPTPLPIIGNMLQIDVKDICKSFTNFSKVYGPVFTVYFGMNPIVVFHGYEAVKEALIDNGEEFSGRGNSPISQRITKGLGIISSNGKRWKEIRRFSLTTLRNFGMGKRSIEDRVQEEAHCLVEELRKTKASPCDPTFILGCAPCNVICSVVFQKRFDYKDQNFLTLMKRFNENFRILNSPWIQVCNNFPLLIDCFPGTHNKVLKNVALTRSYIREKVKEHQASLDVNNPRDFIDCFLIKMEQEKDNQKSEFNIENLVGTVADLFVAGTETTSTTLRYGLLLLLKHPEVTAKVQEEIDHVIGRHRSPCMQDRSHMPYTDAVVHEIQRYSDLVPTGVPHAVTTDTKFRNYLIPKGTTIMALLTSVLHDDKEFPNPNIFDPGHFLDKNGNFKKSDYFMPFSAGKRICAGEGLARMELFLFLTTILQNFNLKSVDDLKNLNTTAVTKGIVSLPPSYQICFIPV
Procedure: (§1) CYP Inhibition Studies: CYP inhibition studies were performed with test compounds, at two concentrations ([…] and 10 μM), using human liver microsomes (Yao, M., Zhu, M., Sinz, M. W., Zhang, H., Humphreys, W. F., Rodrigues, A. D and Dai, R., Journal of Pharmaceutical and Biomedical Analysis, 2007, 44, 211-223; Walsky, R. L and Obach, R. S., Drug Metab. Dispos., 2004, 32, 647-660). Human liver microsomes were mixed with 100 mM phosphate buffer (pH 7.4) and probe substrate and warmed to […] in microcentrifuge tubes. Aliquots of this mixture (499 μL) were transferred to each pre-labeled microcentrifuge tubes, followed by addition of the 1 μL of inhibitors (test compound/CYP-specific positive control inhibitor) or control solvent (DMSO). Aliquots of this mixture (90 μL) were transferred to each pre-labeled microcentrifuge tubes in duplicate. Final solvent concentrations were 0.2% (v/v) or less. Incubations were commenced with the addition of 10 μL NADPH stock (assay concentration, 1 mM) to a final incubation volume of 100 μL and incubated in shaking water bath (at 37° C. and 100 rpm), for the period defined in Tables 1. Incubations were terminated by addition of 400 μL of termination solvent (CH3CN) containing internal standard. The terminated samples were vortex-mixed, centrifuged at 10000 rpm for 5 min and supernatant transferred into HPLC vials for LC-MS/MS analysis to monitor metabolites produced by marker CYP reactions. […] Animals

CYP 2C19 = target: T2, CYP 2C19 (Homo sapiens, UniProt P33261); assay: CYP inhibition in human liver microsomes, 2C19; type: in vitro ADME; details: pH 7.4, @ 10 μM concn
T2 construct: from tissue; host or cells: human liver microsomes
T2 sequence (P33261 whole entry): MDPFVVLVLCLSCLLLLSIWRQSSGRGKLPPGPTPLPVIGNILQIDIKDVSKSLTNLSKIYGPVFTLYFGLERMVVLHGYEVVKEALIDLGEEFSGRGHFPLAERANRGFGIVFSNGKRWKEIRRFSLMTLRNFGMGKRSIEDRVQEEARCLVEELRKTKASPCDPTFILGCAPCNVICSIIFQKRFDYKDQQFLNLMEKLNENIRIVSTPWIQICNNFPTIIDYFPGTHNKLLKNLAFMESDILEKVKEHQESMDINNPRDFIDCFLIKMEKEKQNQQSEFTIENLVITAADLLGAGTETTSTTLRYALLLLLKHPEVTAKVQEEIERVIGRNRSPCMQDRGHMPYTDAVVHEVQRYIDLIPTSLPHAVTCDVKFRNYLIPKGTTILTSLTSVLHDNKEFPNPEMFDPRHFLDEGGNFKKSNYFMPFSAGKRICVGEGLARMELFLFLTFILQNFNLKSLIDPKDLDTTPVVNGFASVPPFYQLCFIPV
Procedure: as §1

CYP 1A2 = target: T3, CYP 1A2 (Homo sapiens, UniProt P05177); assay: CYP inhibition in human liver microsomes, 1A2; type: in vitro ADME; details: pH 7.4, @ 10 μM concn
T3 construct: from tissue; host or cells: human liver microsomes
T3 sequence (P05177 1-516): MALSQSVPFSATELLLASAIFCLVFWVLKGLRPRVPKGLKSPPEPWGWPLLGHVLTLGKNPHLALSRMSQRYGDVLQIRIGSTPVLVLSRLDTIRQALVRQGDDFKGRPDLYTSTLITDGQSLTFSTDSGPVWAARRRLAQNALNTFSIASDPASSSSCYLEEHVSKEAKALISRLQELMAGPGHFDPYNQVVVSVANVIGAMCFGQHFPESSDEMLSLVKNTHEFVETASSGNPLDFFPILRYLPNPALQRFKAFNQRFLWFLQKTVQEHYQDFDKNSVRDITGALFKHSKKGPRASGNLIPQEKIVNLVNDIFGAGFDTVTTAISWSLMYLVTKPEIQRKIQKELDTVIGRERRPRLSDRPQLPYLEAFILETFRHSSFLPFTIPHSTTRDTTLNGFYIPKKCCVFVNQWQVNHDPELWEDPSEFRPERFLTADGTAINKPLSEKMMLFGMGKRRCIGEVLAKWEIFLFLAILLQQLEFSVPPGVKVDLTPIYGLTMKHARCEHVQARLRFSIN
Procedure: as §1

[1] = target: T4, recombinant purified human BTK (Homo sapiens, UniProt Q06187); assay: In vitro BTK kinase assay on ADP Glo platform; type: biochemical; details: 2 hr room temperature, read-out: In-vitro BTK inhibitory activity: IC50
T4 construct: purchased SignalChem, USA
T4 sequence (Q06187 whole entry): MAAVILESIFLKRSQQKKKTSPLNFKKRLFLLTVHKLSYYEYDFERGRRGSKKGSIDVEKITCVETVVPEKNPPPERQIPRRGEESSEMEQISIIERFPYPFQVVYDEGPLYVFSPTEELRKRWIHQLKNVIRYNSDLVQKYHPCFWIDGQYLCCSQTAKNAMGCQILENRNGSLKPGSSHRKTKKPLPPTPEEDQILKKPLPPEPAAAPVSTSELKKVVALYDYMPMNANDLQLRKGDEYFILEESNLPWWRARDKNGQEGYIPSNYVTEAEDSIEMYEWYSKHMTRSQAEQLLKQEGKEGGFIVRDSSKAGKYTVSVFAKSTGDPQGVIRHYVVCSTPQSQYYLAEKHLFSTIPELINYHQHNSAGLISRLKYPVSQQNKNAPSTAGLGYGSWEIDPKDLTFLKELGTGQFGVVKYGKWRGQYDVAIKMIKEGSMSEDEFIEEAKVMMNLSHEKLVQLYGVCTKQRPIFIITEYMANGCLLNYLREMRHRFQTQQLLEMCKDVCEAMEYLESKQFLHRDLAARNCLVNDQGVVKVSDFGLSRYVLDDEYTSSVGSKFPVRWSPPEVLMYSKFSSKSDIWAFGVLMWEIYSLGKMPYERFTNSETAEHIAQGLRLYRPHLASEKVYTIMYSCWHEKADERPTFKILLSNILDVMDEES
Procedure: Testing of Compounds of the Invention Biological Studies: In vitro BTK Inhibitory Activity Assay:
In vitro BTK inhibitory activity of test compounds were screened using BTK kinase assay on ADP Glo platform (Li, H., Totoritis, R. D., Lor, L. A., Schwartz, B., Caprioli, P., Jurewicz, A. J and Zhang, G., Assay Drug Dev. Technol., 2009, 7(6), 598-605). Briefly, fixed amount of recombinant purified human BTK (3 ng/reaction from SignalChem, USA) were incubated with increasing concentration of test compounds, in 1× kinase reaction buffer (40 mM Tris-Cl, pH7.5, 20 mM MgCl2, 2 mM MnCl2, 0.1 mg/ml BSA and 50 μM DTT). Enzymatic reaction was initiated by adding a substrate cocktail containing 50 µM of ATP (final concentration) and […] of polyGln4Tyr1 (Signal Chem) in total 25 μl of reaction, in round bottom white 96 well plate. The reaction mixture was incubated at room temperature for 2 hr. After 2 hr of incubation, 10 μl of the reaction mix was mixed with […] of ADP Glo reagent, in another round bottom white 96 well plate and incubated at room temperature for 40 min. This was followed by addition of kinase detection reagent (20 μl per reaction) and incubation at room temperature for 30 min. Finally, plate was read for luminescence at an integration time of 500 millisecond per well. Data were plotted taking Enzyme with no inhibitor set as the 100% kinase activity and for dose response curve, % Kinase activity was plotted against conc on Log scale and IC50 was determined by non linear curve fitting method using GraphPad Prism software 6. The in vitro BTK inhibitory activity (IC50) for representative compounds are listed in […]

CYP 3A4 = target: T5, CYP 3A4 (Homo sapiens, UniProt P08684); assay: CYP inhibition in human liver microsomes, 3A4; type: in vitro ADME; details: pH 7.4, @ 10 μM concn
T5 construct: from tissue; host or cells: human liver microsomes
T5 sequence (P08684 whole entry): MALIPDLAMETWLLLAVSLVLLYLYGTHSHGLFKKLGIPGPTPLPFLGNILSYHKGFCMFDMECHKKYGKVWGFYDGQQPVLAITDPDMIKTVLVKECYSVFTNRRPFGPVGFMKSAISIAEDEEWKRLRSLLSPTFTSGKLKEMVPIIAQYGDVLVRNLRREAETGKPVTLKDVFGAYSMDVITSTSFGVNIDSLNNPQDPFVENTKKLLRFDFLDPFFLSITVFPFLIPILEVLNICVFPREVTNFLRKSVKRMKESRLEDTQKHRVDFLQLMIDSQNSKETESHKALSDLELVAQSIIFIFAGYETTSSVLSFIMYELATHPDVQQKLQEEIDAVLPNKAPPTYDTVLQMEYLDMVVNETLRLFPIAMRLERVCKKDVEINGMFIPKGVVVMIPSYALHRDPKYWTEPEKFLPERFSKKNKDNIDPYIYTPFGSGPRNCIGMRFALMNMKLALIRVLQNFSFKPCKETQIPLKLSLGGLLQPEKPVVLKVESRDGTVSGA
Procedure: as §1

CYP 2D6 = target: T6, CYP 2D6 (Homo sapiens, UniProt P10635); assay: CYP inhibition in human liver microsomes, 2D6; type: in vitro ADME; details: pH 7.4, @ 10 μM concn
T6 construct: from tissue; host or cells: human liver microsomes
T6 sequence (P10635 whole entry): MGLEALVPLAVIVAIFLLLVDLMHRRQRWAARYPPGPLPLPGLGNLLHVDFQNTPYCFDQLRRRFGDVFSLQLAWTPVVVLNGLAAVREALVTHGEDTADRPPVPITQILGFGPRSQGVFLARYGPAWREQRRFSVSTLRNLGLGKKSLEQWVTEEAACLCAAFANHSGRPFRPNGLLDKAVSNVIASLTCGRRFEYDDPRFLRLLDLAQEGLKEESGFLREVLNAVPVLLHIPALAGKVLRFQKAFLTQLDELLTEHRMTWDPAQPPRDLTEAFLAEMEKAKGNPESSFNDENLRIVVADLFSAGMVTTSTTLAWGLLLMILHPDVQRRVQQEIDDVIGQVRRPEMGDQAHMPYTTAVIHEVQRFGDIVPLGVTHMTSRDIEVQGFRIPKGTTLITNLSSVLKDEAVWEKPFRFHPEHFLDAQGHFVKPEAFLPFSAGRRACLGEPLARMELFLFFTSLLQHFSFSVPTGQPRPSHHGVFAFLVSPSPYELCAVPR
Procedure: as §1

CYP 2C9 = target: T7, CYP 2C9 (Homo sapiens, UniProt P11712); assay: CYP inhibition in human liver microsomes, 2C9; type: in vitro ADME; details: pH 7.4, @ 10 μM concn
T7 construct: from tissue; host or cells: human liver microsomes
T7 sequence (P11712 whole entry): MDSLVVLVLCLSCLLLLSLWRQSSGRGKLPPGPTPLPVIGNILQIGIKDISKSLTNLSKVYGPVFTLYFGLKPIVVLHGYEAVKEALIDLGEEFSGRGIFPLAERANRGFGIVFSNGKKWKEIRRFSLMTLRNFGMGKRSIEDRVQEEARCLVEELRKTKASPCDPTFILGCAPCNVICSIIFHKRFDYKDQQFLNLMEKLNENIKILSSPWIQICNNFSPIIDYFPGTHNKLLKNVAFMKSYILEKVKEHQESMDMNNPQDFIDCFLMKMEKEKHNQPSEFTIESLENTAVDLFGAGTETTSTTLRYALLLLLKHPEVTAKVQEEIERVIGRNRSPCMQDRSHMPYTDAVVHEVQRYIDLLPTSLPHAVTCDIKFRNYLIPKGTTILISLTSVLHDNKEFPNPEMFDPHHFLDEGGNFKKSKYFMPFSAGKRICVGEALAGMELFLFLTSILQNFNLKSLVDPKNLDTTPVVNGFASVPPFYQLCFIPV
Procedure: as §1

Row | Structure (SMILES) | inhibition at 10 μM (CYP 2C8) [%] | inhibition at 10 μM (CYP 2C19) [%] | inhibition at 10 μM (CYP 1A2) [%] | IC50 [1] [nM] | inhibition at 10 μM (CYP 3A4) [%] | inhibition at 10 μM (CYP 2D6) [%] | inhibition at 10 μM (CYP 2C9) [%]
1 | C=CC(=O)N1CC2CC(n3nc(-c4ccc(Oc5ccccc5)cc4)c4c(N)ncnc43)CC2C1 (centres unmarked) [Compound 1, 1-(5-(4-amino-3-(4-phenoxyphenyl)-1H-pyrazolo[3,4-d]pyrimidin-1-yl)hexahydrocyclopenta[c]pyrrol-2(1H)-yl)prop-2-en-1-one] | < 50 | < 50 | < 50 | 1.3 | < 50 | < 50 | < 50
2 | C=CC(=O)N1CC2CC(n3nc(-c4ccc5ncsc5c4)c4c(N)ncnc43)CC2C1 (centres unmarked) [Compound 2, 1-(5-(4-amino-3-(benzo[d]thiazol-6-yl)-1H-pyrazolo[3,4-d]pyrimidin-1-yl)hexahydrocyclopenta[c]pyrrol-2(1H)-yl)prop-2-en-1-one] | < 50 | < 50 | < 50 | 1.1 | < 50 | < 50 | < 50
3 | C=CC(=O)N1CC2CN(c3ccc(Cn4nc(-c5ccc(Oc6ccccc6)cc5)c5c(N)ncnc54)cn3)CC2C1 (centres unmarked) [Compound 3, 1-(5-(5-((4-amino-3-(4-phenoxyphenyl)-1H-pyrazolo[3,4-d]pyrimidin-1-yl)methyl)pyridin-2-yl)hexahydropyrrolo[3,4-c]pyrrol-2(1H)-yl)prop-2-en-1-one] | < 50 | < 50 | < 50 | 8 | < 50 | < 50 | > 50
4 | C=CC(=O)N1CC2CN(CCn3nc(-c4ccc(Oc5ccccc5)cc4)c4c(N)ncnc43)CC2C1 (centres unmarked) [Compound 4, 1-(5-(2-(4-amino-3-(4-phenoxyphenyl)-1H-pyrazolo[3,4-d]pyrimidin-1-yl)ethyl)hexahydropyrrolo[3,4-c]pyrrol-2(1H)-yl)prop-2-en-1-one] | < 50 | < 50 | < 50 | 2 | < 50 | < 50 | < 50
5 | C=CC(=O)N1CC2CC(n3nc(-c4ccc5nc(C)sc5c4)c4c(N)ncnc43)CC2C1 (centres unmarked) [Compound 5, 1-(5-(4-amino-3-(2-methylbenzo[d]thiazol-6-yl)-1H-pyrazolo[3,4-d]pyrimidin-1-yl)hexahydrocyclopenta[c]pyrrol-2(1H)-yl)prop-2-en-1-one] | < 50 | < 50 | < 50 | 8 | > 50 | < 50 | < 50
6 | C=CC(=O)N1CC2CC(n3nc(-c4ccc5sccc5c4)c4c(N)ncnc43)CC2C1 (centres unmarked) [Compound 6, 1-(5-(4-amino-3-(benzo[b]thiophen-5-yl)-1H-pyrazolo[3,4-d]pyrimidin-1-yl)hexahydrocyclopenta[c]pyrrol-2(1H)-yl)prop-2-en-1-one] | < 50 | < 50 | < 50 | 1.7 | < 50 | < 50 | < 50
7 | C=CC(=O)N1CC2CC(n3nc(-c4ccc5c(c4)CCS5)c4c(N)ncnc43)CC2C1 (centres unmarked) [Compound 7, 1-(5-(4-amino-3-(2,3-dihydrobenzo[b]thiophen-5-yl)-1H-pyrazolo [3,4-d]pyrimidin-1-yl)hexahydrocyclopenta[c]pyrrol-2(1H)-yl)prop-2-en-1-one] | < 50 | < 50 | < 50 | 6 | > 50 | < 50 | > 50
8 | C=CC(=O)N1CC2CC(n3nc(-c4ccc5c(c4)oc4ccccc45)c4c(N)ncnc43)CC2C1 (centres unmarked) [Compound 8, 1-(5-(4-amino-3-(dibenzo[b,d]furan-3-yl)-1H-pyrazolo[3,4-d]pyrimidin-1-yl)hexahydrocyclopenta[c]pyrrol-2(1H)-yl)prop-2-en-1-one] | < 50 | > 50 | < 50 | 4 | < 50 | < 50 | < 50
9 | C=CC(=O)N1CC2CC(n3nc(-c4ccc5nc(NC(C)=O)sc5c4)c4c(N)ncnc43)CC2C1 (centres unmarked) [Compound 9, N-(6-(1-(2-acryloyloctahydrocyclopenta[c]pyrrol-5-yl)-4-amino-1H-pyrazolo [3,4-d]pyrimidin-3-yl)benzo[d]thiazol-2-yl)acetamide] | > 50 | < 50 | < 50 | 28 | > 50 | < 50 | > 50
10 | C=CC(=O)N1CC2CC(n3nc(-c4ccc5nc(OC)sc5c4)c4c(N)ncnc43)CC2C1 (centres unmarked) [Compound 10, 1-(5-(4-amino-3-(2-methoxybenzo[d]thiazol-6-yl)-1H-pyrazolo[3,4-d]pyrimidin-1-yl)hexahydrocyclopenta[c]pyrrol-2(1H)-yl)prop-2-en-1-one] | > 50 | < 50 | < 50 | 25 | > 50 | > 50 | < 50
11 | CN(C)C/C=C/C(=O)N1CC2CC(n3nc(-c4ccc(Oc5ccccc5)cc4)c4c(N)ncnc43)CC2C1 (centres unmarked) [Compound 48, (E)-1-(5-(4-amino-3-(4-phenoxyphenyl)-1H-pyrazolo[3,4-d]pyrimidin-1-yl)hexahydrocyclopenta[c]pyrrol-2(1H)-yl)-4-(dimethylamino)but-2-en-1-one] | – | – | – | 50 | – | – | –
